Laboratory results reported in patent US8058442B2 (Technion Research and Development Foundation Ltd., priority 2002, dated 2011).
Like-named read-outs stand apart in the source and are kept apart here.

Assays:
[1] = system: human erythroleukemia K562 cells; assay: Iron permeation of the chelators into calcein-loaded K562 cells; format: cell-based; conditions: 5 μM chelator, 37° C.
Experimental: The iron-scavenging properties of the chelators were assessed in human erythroleukemia K562 cells, by loading with the permeant CAL-AM probe, in situ formation of free CAL, and binding of cytosolic labile iron. Calcein-AM readily passes through the cell membrane of viable cells because of the enhanced hydrophobicity as compared to Calcein. When Calcein-AM permeates into the cytoplasm, it is hydrolyzed by esterases in cells to the parent Calcein, a pH-independent, cytosolic fluorescent marker, which remains inside of the cell. The time-dependent recovery of fluorescence in the presence of a given chelator provided a continuous measure for the capacity of the chelator to access the iron/CAL-containing compartment.
Calcein uptake and intracellular fluorescence were determined as follows: K562 erythroleukemia cells were preloaded with calcein (CAL) by incubation with […] of the fluorescent probe CAL-AM for 5 min at 37° C., washed and incubated in HBS medium containing anti-CAL antibodies in order to quench traces of extracellular-associated fluorescence. The suspensions were placed in 96-well plates (100 μl final volume) and analyzed as described above while maintaining the system at 37° C. At the indicated time, the indicated chelator was added so as to reach a final 5 μM concentration.
The values of half maximal time (sec) and fraction of fluorescence recovery were: […]

PC12 cells = assay: Neuroprotection of PC12 cells against serum-deprivation induced apoptosis (MTT test); format: cell-based, rat; conditions: for number of survival cells (cell viability, % of cells cultured with serum): 0.1 μM chelator, serum-free medium, 24 h, serum-free control 38%
Experimental: Rat PC12 cells, originated from rat pheochromocytoma, were grown at 37° C., in a humid 5% CO2, 95% air environment, in a growth medium containing Dulbecco's modified Eagle's Medium (DMEM, GIBCO, BRL) supplemented with glucose (1 mg/1 ml), 5% fetal calf serum, 10% horse serum, and 1% of a mixture of streptomycin/penicillin. On confluence, the culture was removed and the cells were detached by vigorous washing, centrifuged at 200 g for 5 min and resuspended in DMEM with full serum content. 0.5×10^4 cells/well were placed in microtiter plates (96 wells) precoated with collagen (10 μg/cm^2 were allowed to attach for 24 h before treatment).
Twenty-four hours after attachment of the PC12 cells as described in (g), the medium was replaced with DMEM containing 0.1% BSA. The test compounds were added to the cells after 1 h of incubation. After 24 h incubation, the cells were subjected to MTT test as previously described (Gassen et al., 1998). The absorption was determined in a Perkin-Elmer Dual Wavelength Eliza-Reader at λ=570/650 nm after automatic subtraction of background readings. The results are expressed as percentage of the untreated control.
PC12 cells were grown in serum-free medium alone or in serum-free medium with different concentration of the chelators VK-28, M32, HLA20 and Rasagiline. After 24 h incubation, the cells were subjected to MTT test.
Cell viability was expressed as a percentage of cells cultured in medium supplemented with serum, which served as the control group and was designated as 100%. […] Experimental data are shown as mean±SD (r=6).

rat brain MAO-A = molecular target: T1, rat brain MAO-A (Rattus norvegicus, UniProt P21396); assay: In vitro inhibition of rat brain MAO-A; format: biochemical; conditions: read-out: inhibition of MAO-A
T1 construct: from tissue; host or cells: rat brain homogenate, 4500 g pellet
T1 sequence (P21396 1-526): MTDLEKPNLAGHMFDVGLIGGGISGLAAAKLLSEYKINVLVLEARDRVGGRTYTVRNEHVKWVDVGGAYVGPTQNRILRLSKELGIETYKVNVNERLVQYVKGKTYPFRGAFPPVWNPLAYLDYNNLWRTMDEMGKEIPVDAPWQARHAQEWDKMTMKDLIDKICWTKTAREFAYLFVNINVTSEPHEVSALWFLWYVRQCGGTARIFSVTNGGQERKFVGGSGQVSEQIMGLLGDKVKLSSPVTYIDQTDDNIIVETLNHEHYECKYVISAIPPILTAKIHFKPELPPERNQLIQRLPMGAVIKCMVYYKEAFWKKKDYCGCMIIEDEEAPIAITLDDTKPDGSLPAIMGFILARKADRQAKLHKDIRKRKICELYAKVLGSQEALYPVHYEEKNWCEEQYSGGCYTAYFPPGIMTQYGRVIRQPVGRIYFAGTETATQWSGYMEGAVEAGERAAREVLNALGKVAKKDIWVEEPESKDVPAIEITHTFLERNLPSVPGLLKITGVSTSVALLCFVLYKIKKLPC
Experimental: Rats were decapitated and the brains were quickly taken into a weighted ice-cold sucrose buffer (0.32 M), and their weights were determined. All subsequent procedures were performed at 0-4° C. The brains were homogenized in 0.25 M sucrose (one part tissue to 20 parts sucrose) in a Teflon glass homogenizer followed by the addition of sucrose buffer to a final concentration of 10% homogenate. The homogenates were centrifuged at 600 g for 15 min. The supernatant fraction was taken out and centrifuged at 4500 g for 30 min, the pellet was diluted in 0.32 M sucrose buffer and kept frozen for later assaying of MAO. Protein concentration was determined with Bradford reagent at 595 nm, using bovine serum albumin as a standard.
The test compound was added to a suitable dilution of the enzyme preparation (70 μg protein for MAO-B and 150 μg MAO-A assay) in 0.05 M phosphate buffer (pH 7.4). The mixture was incubated together with […], a specific inhibitor of MAO-B (for determination of MAO-A) or […] clorgylin, a specific inhibitor of MAO-A (for determination of MAO-B). Incubation was carried for 1 h at 37° C. before addition of ^14C-5-hydroxytryptamine binoxalate ([…]) for determination of MAO-A, or ^14C-phenylethylamine 100 µM for determination of MAO-B, and incubation continued for 30 min or 20 min, respectively. The reaction was stopped with 2 M ice-cold citric acid, and the metabolites were extracted and determined by liquid-scintillation counting in cpm units.
MAO-A and MAO-B activities were determined in rat brain homogenate in vitro following incubation with varying concentrations of the test compounds.
In another experiment, the in vitro inhibitory activity of HLA20, M32, VK-28, M30, M31, and propargylamine (P) was tested against rat brain MAO-A. The test compounds were added to buffer containing 10^−7M deprenyl and were incubated with the tissue homogenate for 60 min at 37° C. before addition of ^14C-5-hydroxytryptamine. MAO-A activity in presence of the test compound was expressed as a percentage of that in control samples.

Row | SMILES | half maximal time ([1]; FIG. 2A) [s] | half maximal time ([1]; FIG. 2B) [s] | number of survival cells (cell viability, % of cells cultured with serum) (PC12 cells) [%] | change in the protection against PC12 cell death induced by serum withdrawal (PC12 cells; 1 or 10 μM, compared with 0.1 μM) | inhibition at 100 µM (rat brain MAO-A) [%] | half maximal time ([1]; FIG. 2C) [s] | inhibitory activity against PC12 apoptosis induced by serum withdrawal (PC12 cells; 1 μM) | PC12 cell death in serum-free medium (toxicity) (PC12 cells; 10 μM) | inhibition at 100 µM (rat brain MAO-A; 100 μM) [%]
1 | C#CCN1CCN(Cc2ccc(O)c3ncccc23)CC1 [HLA20, 5-(4-propargylpiperazin-1-ylmethyl)-8-hydroxyquinoline] | 175 | 390 | 65 | no significant change in the protection | 26.1 | – | – | – | –
2 | OCCN1CCN(Cc2ccc(O)c3ncccc23)CC1 [VK-28, 5-[4-(2-hydroxyethyl)piperazin-1-ylmethyl]-8-hydroxyquinoline, reference compound] | – | 1250 | 80 | – | – | 1500 | good inhibitory activity | about 75% | 15.1
